# Experimental data from US8217048B2, “Inhibitors of serine proteases, particularly HCV NS3-NS4A protease” (Vertex Pharmaceuticals Incorporated, priority 2003, dated 2012).
# Values joined by “and” are separate entries in the source; they are usually repeats but may differ in a detail not shown here. Equal values may be shown once.
# Legend:
# [1] = tested on: Cells containing hepatitis C virus (HCV) replicon; test: HCV Replicon Cell Assay (Example 4); type: cell-based; conditions: 48 h, tested according to Example 4 (cell), 50% inhibition of HCV RNA level, 48-hour incubation
# Method: HCV Replicon Cell Assay Protocol
# Cells containing hepatitis C virus (HCV) replicon were maintained in DMEM containing 10% fetal bovine serum (FBS), 0.25 mg per ml of G418, with appropriate supplements (media A).
# On day 1, replicon cell monolayer was treated with a trypsin:EDTA mixture, removed, and then media A was diluted into a final concentration of 100,000 cells per ml wit. 10,000 cells in 100 ul were plated into each well of a 96-well tissue culture plate, and cultured overnight in a tissue culture incubator at 37° C.
# On day 2, compounds (in 100% DMSO) were serially diluted into DMEM containing 2% FBS, 0.5% DMSO, with appropriate supplements (media B). The final concentration of DMSO was maintained at 0.5% throughout the dilution series.
# Media on the replicon cell monolayer was removed, and then media B containing various concentrations of compounds was added. Media B without any compound was added to other wells as no compound controls.
# Cells were incubated with compound or 0.5% DMSO in media B for 48 hours in a tissue culture incubator at 37° C. At the end of the 48-hour incubation, the media was removed, and the replicon cell monolayer was washed once with PBS and stored at −80° C. prior to RNA extraction.
# Culture plates with treated replicon cell monolayers were thawed, and a fixed amount of another RNA virus, such as Bovine Viral Diarrhea Virus (BVDV) was added to cells in each well, RNA extraction reagents (such as reagents from RNeasy kits) were added to the cells immediately to avoid degradation of RNA. Total RNA was extracted according the instruction of manufacturer with modification to improve extraction efficiency and consistency. Finally, total cellular RNA, including HCV replicon RNA, was eluted and stored at −80° C. until further processing.
# A Taqman real-time RT-PCR quantification assay was set up with two sets of specific primers and probe. One was for HCV and the other was for BVDV. Total RNA extractants from treated HCV replicon cells was added to the PCR reactions for quantification of both HCV and BVDV RNA in the same PCR well. Experimental failure was flagged and rejected based on the level of BVDV RNA in each well. The level of HCV RNA in each well was calculated according to a standard curve run in the same PCR plate. The percentage of inhibition or decrease of HCV RNA level due to compound treatment was calculated using the DMSO or no compound control as 0% of inhibition. The IC50 (concentration at which 50% inhibition of HCV RNA level is observed) was calculated from the titration curve of any given compound.
# HCV NS3-NS4A protease = molecular target: T1, HCV NS3-NS4A protease (Hepatitis C virus genotype 1a, UniProt P27958); test: HCV Ki Assay (enzyme, Example 5); type: biochemical; conditions: Ki values, tested according to Example 5 (enzyme); 5AB substrate, tNS3 with KK4A
# T1 construct: The buffer, KK4A, DTT, and tNS3 were combined
# Method: HPLC Microbore Method for Separation of 5AB Substrate and Products
# NH2-Glu-Asp-Val-Val-(alpha)Abu-Cys-Ser-Met-Ser-Tyr-COOH
# A stock solution of 20 mM 5AB (or concentration of your choice) was made in DMSO w/0.2M DTT. This was stored in aliquots at −20 C.
# Buffer: 50 mM HEPES, pH 7.8; 20% glycerol; 100 mM NaCl
# Total assay volume was 100 μL
# The buffer, KK4A, DTT, and tNS3 were combined; distributed 78 μL each into wells of 96 well plate. This was incubated at 30 C for ˜5-10 min.
# 2.5 μL of appropriate concentration of test compound was dissolved in DMSO (DMSO only for control) and added to each well. This was incubated at room temperature for 15 min.
# Initiated reaction by addition of 20 μL of 250 μM 5AB substrate (25 μM concentration is equivalent or slightly lower than the Km for 5AB).
# Incubated for 20 min at 30 C.
# Terminated reaction by addition of 25 μL of 10% TFA
# Transferred 120 μL aliquots to HPLC vials
# Separated SMSY product from substrate and KK4A by the following method:
# Microbore Separation Method:
# Instrumentation: Agilent 1100
# Column thermostated chamber G1316A
# Diode array detector G1315A
# Solvent A=HPLC grade water+0.1% TFA
# Solvent B=HPLC grade acetonitrile+0.1% TFA
# Stop time: 17 min Post-run time: 10 min.
# T1 sequence (P27958 1658-1711): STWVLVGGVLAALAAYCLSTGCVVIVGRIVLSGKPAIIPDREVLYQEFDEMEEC
# T1 sequence (P27958 1027-1208): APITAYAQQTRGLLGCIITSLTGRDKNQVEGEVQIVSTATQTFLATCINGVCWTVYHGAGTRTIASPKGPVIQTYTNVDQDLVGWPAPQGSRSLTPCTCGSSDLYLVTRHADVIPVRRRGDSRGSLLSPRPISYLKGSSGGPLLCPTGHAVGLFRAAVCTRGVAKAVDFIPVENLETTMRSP
SMILES,IC50 [1],Ki (HCV NS3-NS4A protease)
CCC[C@H](NC(=O)[C@@H]1C[C@@H](Oc2cccc3ccccc23)CN1C(=O)[C@@H](NC(=O)[C@@H](NC(=O)c1cnccn1)C1CCCCC1)C(C)(C)C)C(=O)C(=O)NC1CC1 [Compound 36],< 500 nM,< 100 nM
CCC[C@H](NC(=O)[C@@H]1C[C@@H](Oc2cccc(Cl)n2)CN1C(=O)[C@@H](NC(=O)[C@@H](NC(=O)c1cnccn1)C1CCCCC1)C(C)(C)C)C(=O)C(=O)NC1CC1 [Compound 25],–,100 to 300 nM
CCC[C@H](NC(=O)[C@@H]1C[C@@H](Oc2ncnc3ccccc23)CN1C(=O)[C@@H](NC(=O)[C@@H](NC(=O)c1cnccn1)C1CCCCC1)C(C)(C)C)C(=O)C(=O)NC1CC1 [Compound 42],< 500 nM,< 100 nM
CCCC(NC(=O)[C@H]1C[C@H](Oc2ccc(C(F)(F)F)cn2)CN1C(=O)C(NC(=O)C(NC(=O)c1cnccn1)C1CCCCC1)C(C)(C)C)C(=O)C(=O)NC1CC1 (some centres unmarked) [Compound 27],–,> 300 nM
CCC[C@H](NC(=O)[C@@H]1C[C@@H](Oc2cc(OC)cc(OC)c2)CN1C(=O)[C@@H](NC(=O)[C@@H](NC(=O)c1cnccn1)C1CCCCC1)C(C)(C)C)C(=O)C(=O)NC1CC1 [Compound 24],< 500 nM,< 100 nM
CCC[C@H](NC(=O)[C@@H]1C[C@@H](Oc2ccc(-c3ccccc3)cc2)CN1C(=O)[C@@H](NC(=O)[C@@H](NC(=O)c1cnccn1)C1CCCCC1)C(C)(C)C)C(=O)C(=O)NC1CC1 [Compound 19],< 500 nM,< 100 nM
CCCC(NC(=O)[C@H]1C[C@H](Oc2ccc(-c3ccccc3)nn2)CN1C(=O)C(NC(=O)C(NC(=O)c1cnccn1)C1CCCCC1)C(C)(C)C)C(=O)C(=O)NC1CC1 (some centres unmarked) [Compound 28],–,> 300 nM
CCC[C@H](NC(=O)[C@@H]1C[C@@H](Oc2ccccc2Cl)CN1C(=O)[C@@H](NC(=O)[C@@H](NC(=O)c1cnccn1)C1CCCCC1)C(C)(C)C)C(=O)C(=O)NC1CC1 [Compound 20],500 to 1000 nM,< 100 nM
CCC[C@H](NC(=O)[C@@H]1C[C@@H](Oc2cccc(OC)c2OC)CN1C(=O)[C@@H](NC(=O)[C@@H](NC(=O)c1cnccn1)C1CCCCC1)C(C)(C)C)C(=O)C(=O)NC1CC1 [Compound 23],–,100 to 300 nM
CCCC(NC(=O)C1CC(Oc2cccc(Cl)c2Cl)CN1C(=O)C(NC(=O)C(NC(=O)c1cnccn1)C1CCCCC1)C(C)(C)C)C(=O)C(=O)NC1CC1 (centres unmarked) [Compound 5],500 to 1000 nM,100 to 300 nM
CCC[C@H](NC(=O)[C@@H]1C[C@@H](Oc2ccc(C(=O)N3CCNCC3)cc2)CN1C(=O)[C@@H](NC(=O)[C@@H](NC(=O)c1cnccn1)C1CCCCC1)C(C)(C)C)C(=O)C(=O)NC1CC1 [Compound 71],> 1000 nM,100 to 300 nM
CCC[C@H](NC(=O)[C@@H]1C[C@@H](Oc2ccc(CC#N)cc2)CN1C(=O)[C@@H](NC(=O)[C@@H](NC(=O)c1cnccn1)C1CCCCC1)C(C)(C)C)C(=O)C(=O)NC1CC1 [Compound 65],< 500 nM,100 to 300 nM
CCC[C@H](NC(=O)C1C[C@@H](Oc2cc(Cl)cc(Cl)c2)CN1C(=O)[C@@H](NC(=O)[C@@H](NC(=O)c1cnccn1)C1CCCCC1)C(C)(C)C)C(=O)C(=O)NC1CC1 (some centres unmarked) [Compound 12],< 500 nM,100 to 300 nM
CCC[C@H](NC(=O)[C@@H]1C[C@@H](Oc2ccc(C(=O)OC(C)C)cc2)CN1C(=O)[C@@H](NC(=O)[C@@H](NC(=O)c1cnccn1)C1CCCCC1)C(C)(C)C)C(=O)C(=O)NC1CC1 [Compound 61],< 500 nM,< 100 nM
CCC[C@H](NC(=O)[C@@H]1C[C@@H](Oc2ccc(OC)cc2Cl)CN1C(=O)[C@@H](NC(=O)[C@@H](NC(=O)c1cnccn1)C1CCCCC1)C(C)(C)C)C(=O)C(=O)NC1CC1 [Compound 64],< 500 nM,< 100 nM
CCC[C@H](NC(=O)[C@@H]1C[C@@H](Oc2cccc(F)c2)CN1C(=O)[C@@H](NC(=O)[C@@H](NC(=O)c1cnccn1)C1CCCCC1)C(C)(C)C)C(=O)C(=O)NC1CC1 [Compound 18],< 500 nM,100 to 300 nM

SMILES,IC50 [1],Ki (HCV NS3-NS4A protease)
CCC[C@H](NC(=O)[C@@H]1C[C@@H](Oc2ccnc3cc(OC)ccc23)CN1C(=O)[C@@H](NC(=O)[C@@H](NC(=O)c1cnccn1)C1CCCCC1)C(C)(C)C)C(=O)C(=O)NC1CC1 [Compound 41],> 1000 nM,< 100 nM
CCC[C@H](NC(=O)C1C[C@@H](Oc2ccccc2OC(F)(F)F)CN1C(=O)[C@@H](NC(=O)[C@@H](NC(=O)c1cnccn1)C1CCCCC1)C(C)(C)C)C(=O)C(=O)NC1CC1 (some centres unmarked) [Compound 9],–,> 300 nM
CCC[C@H](NC(=O)[C@@H]1C[C@@H](Oc2cccc3ccccc23)CN1C(=O)[C@@H](NC(=O)[C@@H](NC(=O)c1ncc[nH]1)C1CCCCC1)C(C)(C)C)C(=O)C(=O)NC1CC1 [Compound 37],–,< 100 nM
CCC[C@H](NC(=O)[C@@H]1C[C@@H](Oc2ccc(C(=O)OC)cc2)CN1C(=O)[C@@H](NC(=O)[C@@H](NC(=O)c1cnccn1)C1CCCCC1)C(C)(C)C)C(=O)C(=O)NC1CC1 [Compound 52],–,< 100 nM
CCC[C@H](NC(=O)[C@@H]1C[C@@H](Oc2ccccc2-c2ccccc2)CN1C(=O)[C@@H](NC(=O)[C@@H](NC(=O)c1cnccn1)C1CCCCC1)C(C)(C)C)C(=O)C(=O)NC1CC1 [Compound 17],–,> 300 nM
CCC[C@H](NC(=O)[C@@H]1C[C@@H](Oc2ccc(Cl)cn2)CN1C(=O)[C@@H](NC(=O)[C@@H](NC(=O)c1cnccn1)C1CCCCC1)C(C)(C)C)C(=O)C(=O)CC(C)C [Compound 75],–,> 300 nM
CCCC(NC(=O)[C@H]1C[C@H](Oc2cc(C(F)(F)F)ncn2)CN1C(=O)C(NC(=O)C(NC(=O)c1cnccn1)C1CCCCC1)C(C)(C)C)C(=O)C(=O)NC1CC1 (some centres unmarked) [Compound 30],–,100 to 300 nM
C=CCCC(=O)C(=O)[C@H](CCC)NC(=O)[C@@H]1C[C@@H](Oc2ccc(Cl)cn2)CN1C(=O)[C@@H](NC(=O)[C@@H](NC(=O)c1cnccn1)C1CCCCC1)C(C)(C)C [Compound 76],–,100 to 300 nM and > 300 nM
CCCC(NC(=O)[C@H]1C[C@H](Oc2ccnc(C(F)(F)F)n2)CN1C(=O)C(NC(=O)C(NC(=O)c1cnccn1)C1CCCCC1)C(C)(C)C)C(=O)C(=O)NC1CC1 (some centres unmarked) [Compound 29],–,> 300 nM
CCCC(NC(=O)[C@H]1C[C@H](Oc2ncccc2[N+](=O)[O-])CN1C(=O)C(NC(=O)C(NC(=O)c1cnccn1)C1CCCCC1)C(C)(C)C)C(=O)C(=O)NC1CC1 (some centres unmarked) [Compound 33],–,100 to 300 nM
CCCC(NC(=O)[C@H]1C[C@H](Oc2nccc(-c3ccccc3)c2C#N)CN1C(=O)C(NC(=O)C(NC(=O)c1cnccn1)C1CCCCC1)C(C)(C)C)C(=O)C(=O)NC1CC1 (some centres unmarked) [Compound 31],–,100 to 300 nM
CCC[C@H](NC(=O)[C@@H]1C[C@@H](Oc2cccc(OC)c2)CN1C(=O)[C@@H](NC(=O)[C@@H](NC(=O)c1cnccn1)C1CCCCC1)C(C)(C)C)C(=O)C(=O)NC1CC1 [Compound 21],–,> 300 nM
CCCC(NC(=O)[C@H]1C[C@H](Oc2nccc(C(F)(F)F)n2)CN1C(=O)C(NC(=O)C(NC(=O)c1cnccn1)C1CCCCC1)C(C)(C)C)C(=O)C(=O)NC1CC1 (some centres unmarked) [Compound 74],–,> 300 nM
CCCC(NC(=O)[C@H]1C[C@H](Oc2ncncc2F)CN1C(=O)C(NC(=O)C(NC(=O)c1cnccn1)C1CCCCC1)C(C)(C)C)C(=O)C(=O)NC1CC1 (some centres unmarked) [Compound 32],–,< 100 nM
CCC[C@H](NC(=O)[C@@H]1C[C@@H](Oc2ccc(Cl)cn2)CN1C(=O)[C@@H](NC(=O)[C@@H](NC(=O)[C@H](C)NC(=O)OC)C1CCCCC1)C(C)(C)C)C(=O)C(=O)NC1CC1 [Compound 69],–,< 100 nM
